Experimental data from US20240130994A1, “IONIC LIQUID FORMULATIONS FOR TREATING DIABETES” (i2O Therapeutics, Inc., priority 2020, published 2024).
Entries after “also recorded” stand apart in the source; their conditions may differ.

Assays:
[1] = system: Streptozocin-induced diabetic male Wistar rats; assay: Blood glucose levels after oral liquid gavage in rat model of Type 1 diabetes; type: in vivo; conditions: Type 1 diabetes model rats
Description: About 250 μL of blood was collected at regular intervals in order to determine the blood glucose level. The obtained values, plotted as mean percent change±standard error in blood glucose levels with respect to initial reading (n=4) versus time, are shown in FIG. 11.

[2] = system: non-diabetic male Wistar rats; assay: Blood glucose levels after subcutaneous injection or liquid gavage in fasted non-diabetic rats; type: in vivo, rat
Description: A fasting control group was dosed orally with a saline solution. About 250 μL of blood was collected at regular intervals in order to determine the blood glucose level. The obtained values, plotted as mean percent change±standard error in blood glucose levels with respect to initial reading (n=4) versus time, are shown in FIG. 10. […] About 250 μL of blood was collected at regular intervals in order to determine the blood glucose level. The obtained values, plotted as mean percent change±standard error in blood glucose levels with respect to initial reading (n=4) versus time, are shown in FIG. 11.

[3] = system: Streptozotocin-induced diabetic male Wistar rats; assay: Plasma insulin after administration in rat model of Type 1 diabetes; type: in vivo; conditions: subcutaneous injection, oral liquid gavage or jejunum catheter
Description: A fasting control group was not treated. About 250 μL of blood was collected at regular intervals in order to determine the insulin serum concentration.

[4] = system: non-diabetic male Wistar rats; assay: Glucose excretion in urine after intrajejunal injection; type: in vivo, rat; conditions: intrajejunal injection at varying doses, urine from bladder 1.5 hours post-injection
Description: At 1.5 hours post-injection, urine was sampled from the bladder to determine glucose concentration. The obtained glucose concentration values, plotted as percent change in blood glucose levels with respect to initial reading versus dose level and change in glucose concentration in the urine collected from the bladder versus dose level (n=1), are shown in FIG. 13.

[5] = system: non-diabetic male Wistar rats; assay: Blood glucose levels after intrajejunal injection in fasted non-diabetic rats; type: in vivo, rat
Description: About 250 μL of blood was collected at regular intervals in order to determine the blood glucose level. The obtained values, plotted as mean percent change±standard error in blood glucose levels with respect to initial reading (n=3) versus time, are shown in FIG. 7.
About 250 μL of blood was collected at regular intervals in order to determine the blood glucose level. The obtained values, plotted as mean percent change±standard error in blood glucose levels with respect to initial reading (n=3) versus time, are shown in FIG. 8.
The obtained values, plotted as mean percent change±standard error in blood glucose levels with respect to initial reading (n=4) versus time, are shown in FIG. 9.

[6] = Physical form of choline-based ionic liquids at room temperature; type: physicochemical
Description: Several ionic liquids comprising choline as a cation and various anions were synthesized. […] For anions not miscible with the aqueous choline bicarbonate solution, a co-solvent, such as ethanol, was added until a homogenous mixture formed. The mixture was stirred at room temperature until CO2 evolution ceased. Solvent was removed by rotary evaporation at 60° C. for 20 minutes, and each product was dried in a vacuum oven for 48 hours at 60° C.

[7] = in the presence of well-known permeation enhancers; cited from earlier work

Physical Form (Ratios Listed as Cation:Anion) ([6]; cation:anion 1:1, room temperature) | Physical Form (Ratios Listed as Cation:Anion) ([6]; cation:anion 1:2, room temperature) | Physical Form (Ratios Listed as Cation:Anion) ([6]; cation:anion 2:1, room temperature) | SMILES | effect on blood glucose levels [1] | effect on blood glucose levels ([2]; oral liquid gavage, listed as choline-citronellic acid) | effect on blood glucose levels ([2]; subcutaneous injection) | insulin secretion (plasma insulin concentration) [3] | glucose concentration in the urine [4] | effect on blood glucose level ([5]; 10, 20, 50 and 100 μL) | blood glucose levels, % of starting levels ([5]; 50 μL dose) | effect on blood glucose levels ([5]; 100 μL) | drop in blood glucose level from baseline ([5]; 100 μL dose) | absorption of liraglutide [7]
Liquid at 2:1, 1:1, 1:2 | Liquid at 2:1, 1:1, 1:2 | Liquid at 2:1, 1:1, 1:2 | CC(C)=CCCC(C)CC(=O)O (stereo not shown) [Citronellic Acid] | continued to drop | reduced blood glucose levels; also recorded: dropped and recovered slowly with time | reduced blood glucose levels | Stimulation of insulin secretion was observed | increasing glucose concentration in the urine | dropped in a dose-dependent manner | about 50% | pronounced decrease in blood glucose levels | about 70% | –
– | – | – | CCCCCCCCCCCCCCCC(=O)N[C@@H](CCC(=O)NCCCC[C@H](NC(=O)[C@H](C)NC(=O)[C@H](C)NC(=O)[C@H](CCC(N)=O)NC(=O)CNC(=O)[C@H](CCC(=O)O)NC(=O)[C@H](CC(C)C)NC(=O)[C@H](Cc1ccc(O)cc1)NC(=O)[C@H](CO)NC(=O)[C@H](CO)NC(=O)[C@@H](NC(=O)[C@H](CC(=O)O)NC(=O)[C@H](CO)NC(=O)[C@@H](NC(=O)[C@H](Cc1ccccc1)NC(=O)[C@@H](NC(=O)CNC(=O)[C@H](CCC(=O)O)NC(=O)[C@H](C)NC(=O)[C@@H](N)Cc1cnc[nH]1)[C@@H](C)O)[C@@H](C)O)C(C)C)C(=O)N[C@@H](CCC(=O)O)C(=O)N[C@@H](Cc1ccccc1)C(=O)N[C@H](C(=O)N[C@@H](C)C(=O)N[C@@H](Cc1c[nH]c2ccccc12)C(=O)N[C@@H](CC(C)C)C(=O)N[C@H](C(=O)N[C@@H](CCCNC(=N)N)C(=O)NCC(=O)N[C@@H](CCCNC(=N)N)C(=O)NCC(=O)O)C(C)C)[C@@H](C)CC)C(=O)O [liraglutide] | – | – | – | – | – | – | – | – | – | only minute absorption
